Experimental data published in patent publication US11478519B2, “Nutritional supplement containing iron” (CURA GLOBAL HEALTH (BVI) LIMITED, priority 2012, dated 2022).

Test system: Aspergillus oryzae
Procedure: The dose of iron was calculated as a concentration of iron elements rather than the concentration of salt; to enable comparison with the iron content in the fungal biomass. All fungal samples were thoroughly washed with deionizer water prior to testing by the ICP-OES method.
Other inorganic minerals such as selenium and zinc have been used to produce selenium or zinc enriched yeast, but the use of filamentous fungi has not been reported. […] A similar process (FIG. 2) was used for growing Aspergillus oryzae fortified with either sodium selenite or zinc sulfate. The dose of either inorganic salt was calculated as a concentration of the elements rather than the concentration of salt to enable comparison with the mineral content in the fungal biomass.

SMILES	effect on fungal yield	toxicity to Aspergillus oryzae (Fe3+ 1-200 mg/L in corn-ethanol Syrup)
O=S(=O)([O-])[O-].[Zn+2] [Zinc, zinc sulfate]	increased fungal yield	–
O=S(=O)([O-])[O-].O=S(=O)([O-])[O-].O=S(=O)([O-])[O-].[Fe+3].[Fe+3] [ferric sulfate, Ferric sulfate (Fe2(SO4)3.2H2O)]	–	not toxic
